Source: ChEMBL document CHEMBL1275493, “Anti-human immunodeficiency virus type 1 activities of antimicrobial peptides derived from human and bovine cathelicidins” (Antimicrob Agents Chemother, 2008)
Peptide text beside a SMILES is read from it.

Legend:
[1] = system: Human immunodeficiency virus 1; experiment: Antiviral activity against Human immunodeficiency virus 1 3B infected in CEM-SS cells; type: functional, organism-based
[2] = Therapeutic index, TC50 for Human immunodeficiency virus 1 3B infected human CEM-SS cells to EC50 for immunodeficiency virus 1 3B; type: cell-based; details: CEM-SS cells infected with HIV-1 3B, read-out: TI
CEM-SS = experiment: Cytotoxicity against Human immunodeficiency virus 1 3B infected human CEM-SS cells; type: functional; details: read-out: TC50 (the source's name)

Compound	EC50 [1] [µM]	selectivity ratio [2]	CC50 (CEM-SS) [µM]
CC[C@H](C)[C@H](NC(=O)[C@H](CCCCN)NC(=O)[C@H](CCC(=O)O)NC(=O)[C@H](CCCCN)NC(=O)[C@@H](N)CO)C(=O)NCC(=O)N[C@@H](CCCCN)C(=O)N[C@@H](CCC(=O)O)C(=O)N[C@@H](Cc1ccccc1)C(=O)N[C@@H](CCCCN)C(=O)N[C@@H](CCCNC(=N)N)C(=O)N[C@H](C(=O)N[C@H](C(=O)N[C@@H](CCC(N)=O)C(=O)N[C@@H](CCCNC(=N)N)C(=O)N[C@H](C(=O)N[C@@H](CCCCN)C(=O)N[C@@H](CC(=O)O)C(=O)N[C@@H](Cc1ccccc1)C(=O)N[C@@H](CC(C)C)C(=O)N[C@@H](CCCNC(=N)N)C(=O)O)[C@@H](C)CC)C(C)C)[C@@H](C)CC (H-SKEKIGKEFKRIVQRIKDFLR-OH)	10.8	2.08	22.5
CC[C@H](C)[C@H](NC(=O)CN)C(=O)N[C@@H](CCCCN)C(=O)N[C@@H](CCC(=O)O)C(=O)N[C@@H](Cc1ccccc1)C(=O)N[C@@H](CCCCN)C(=O)N[C@@H](CCCNC(=N)N)C(=O)N[C@H](C(=O)N[C@H](C(=O)N[C@@H](CCC(N)=O)C(=O)N[C@@H](CCCNC(=N)N)C(=O)N[C@H](C(=O)N[C@@H](CCCCN)C(=O)N[C@@H](CC(=O)O)C(=O)N[C@@H](Cc1ccccc1)C(=O)N[C@@H](CC(C)C)C(=O)N[C@@H](CCCNC(=N)N)C(=O)N[C@@H](CC(N)=O)C(=O)N[C@@H](CC(C)C)C(=O)N[C@H](C(=O)O)C(C)C)[C@@H](C)CC)C(C)C)[C@@H](C)CC (H-GIKEFKRIVQRIKDFLRNLV-OH)	1.08	21	22.7
CC[C@H](C)[C@H](NC(=O)[C@H](CCCNC(=N)N)NC(=O)[C@H](CCC(N)=O)NC(=O)[C@@H](NC(=O)[C@@H](NC(=O)[C@H](CCCNC(=N)N)NC(=O)[C@H](CCCCN)NC(=O)[C@@H](N)Cc1ccccc1)[C@@H](C)CC)C(C)C)C(=O)N[C@@H](CCCCN)C(=O)N[C@@H](CC(=O)O)C(=O)N[C@@H](Cc1ccccc1)C(=O)N[C@@H](CC(C)C)C(=O)N[C@@H](CCCNC(=N)N)C(=O)O (H-FKRIVQRIKDFLR-OH)	3.4	3.1	10.4
CC[C@H](C)[C@H](NC(=O)[C@H](CCCCN)NC(=O)[C@H](CCCCN)NC(=O)[C@H](Cc1ccccc1)NC(=O)[C@H](CC(C)C)NC(=O)[C@H](CCCCN)NC(=O)[C@H](CCCCN)NC(=O)[C@H](Cc1ccccc1)NC(=O)[C@H](CCCCN)NC(=O)[C@H](CCCCN)NC(=O)[C@H](CCCNC(=N)N)NC(=O)[C@H](Cc1ccccc1)NC(=O)[C@H](CCCNC(=N)N)NC(=O)[C@H](CCCCN)NC(=O)[C@H](Cc1ccccc1)NC(=O)[C@H](CCCNC(=N)N)NC(=O)CN)C(=O)N[C@@H](CO)C(=O)O (H-GRFKRFRKKFKKLFKKIS-OH)	0.35	24.1	8.45
CC[C@H](C)[C@H](NC(=O)[C@H](CCCCN)NC(=O)[C@H](CCCCN)NC(=O)[C@H](Cc1ccccc1)NC(=O)[C@H](CC(C)C)NC(=O)[C@H](CCCCN)NC(=O)[C@H](CCCCN)NC(=O)[C@H](Cc1ccccc1)NC(=O)[C@@H]1CCCN1C(=O)[C@H](CCCCN)NC(=O)[C@H](CCCNC(=N)N)NC(=O)[C@H](Cc1ccccc1)NC(=O)[C@H](CCCNC(=N)N)NC(=O)[C@H](CCCCN)NC(=O)[C@H](Cc1ccccc1)NC(=O)[C@H](CCCNC(=N)N)NC(=O)CN)C(=O)N[C@@H](CO)C(=O)O (H-GRFKRFRKPFKKLFKKIS-OH)	3.2	5.9	18.9
CC[C@H](C)[C@H](NC(=O)CN)C(=O)N[C@@H](CCCCN)C(=O)N[C@@H](CCC(N)=O)C(=O)N[C@@H](Cc1ccccc1)C(=O)N[C@@H](CCCCN)C(=O)N[C@@H](CCCNC(=N)N)C(=O)N[C@H](C(=O)N[C@H](C(=O)N[C@@H](CCC(N)=O)C(=O)N[C@@H](CCCNC(=N)N)C(=O)N[C@H](C(=O)N[C@@H](CCCCN)C(=O)N[C@@H](CC(=O)O)C(=O)N[C@@H](Cc1ccccc1)C(=O)N[C@@H](CC(C)C)C(=O)N[C@@H](CCCNC(=N)N)C(=O)N[C@@H](CC(N)=O)C(=O)N[C@@H](CC(C)C)C(=O)N[C@H](C(=O)O)C(C)C)[C@@H](C)CC)C(C)C)[C@@H](C)CC (H-GIKQFKRIVQRIKDFLRNLV-OH)	0.91	15.1	–
CC[C@H](C)[C@H](NC(=O)[C@H](CCCCN)NC(=O)[C@H](CCCCN)NC(=O)[C@H](Cc1ccccc1)NC(=O)[C@H](CC(C)C)NC(=O)[C@H](CCCCN)NC(=O)[C@H](CCCCN)NC(=O)[C@H](NC(=O)[C@H](CCCCN)NC(=O)[C@H](CCCCN)NC(=O)[C@H](CCCNC(=N)N)NC(=O)[C@H](NC(=O)[C@H](CCCNC(=N)N)NC(=O)[C@H](CCCCN)NC(=O)[C@H](Cc1ccccc1)NC(=O)[C@H](CCCNC(=N)N)NC(=O)CN)c1ccccc1)c1ccccc1)C(=O)N[C@@H](CO)C(=O)O	0.68	15	10.2
CC[C@H](C)[C@H](NC(=O)[C@H](CCCNC(=N)N)NC(=O)[C@H](CCC(N)=O)NC(=O)[C@@H](NC(=O)[C@@H](NC(=O)[C@H](CCCNC(=N)N)NC(=O)[C@H](CCCCN)NC(=O)[C@H](Cc1ccccc1)NC(=O)CN)[C@@H](C)CC)C(C)C)C(=O)N[C@@H](CCCCN)C(=O)N[C@@H](CC(=O)O)C(=O)N[C@@H](Cc1ccccc1)C(=O)N[C@@H](CC(C)C)C(=O)N[C@@H](CCCNC(=N)N)C(=O)N[C@@H](CC(N)=O)C(=O)N[C@@H](CC(C)C)C(=O)N[C@H](C(=O)O)C(C)C	0.98	9.1	8.9
